From patent US20240366586A1, “METHODS AND AGENTS FOR MODULATING THE IMMUNE RESPONSE” (The Regents of the University of California, priority 2021, published 2024)
Counter-ions that a name gives are not always drawn.

Experiments:
[1] = test system: Il12b; experiment: Dual-fluorescence reporter macrophage cell line screen, lipopolysaccharide-stimulated: chromatinized Il12b-eGFP versus minimal Il12b-DsRed reporter; format: cell-based; conditions: for selective inhibition of the chromatinized Il12b reporter (eGFP) but not the minimal reporter (DsRed): lipopolysaccharide-stimulated dual-fluorescence reporter macrophage cell line; for inhibition of IL12b, eGFP fluorescence as readout: additional compounds of Formulas (I)-(IV), same screening procedure
Text: We hypothesized that molecules that inhibit the “chromatinized” Il12b reporter but not the “minimal” Il12b reporter would offer a greater degree of Il12b inhibition selectivity.
We generated a dual-fluorescence reporter macrophage cell line having both a [Il12b]-[eGFP] chromatin-based construct and a [Il12b]-[DSred] plasmid vector. FIG. 3. We then stimulated an […] response in the cell line using lipopolysaccharide, an activator of Il12b expression, and tested a library of over 60,000 known and unknown (i.e., undescribed in the literature) small-molecule compounds.
Additional compounds in Formulas (I)-(IV) were screened following the same procedure as described above, with eGFP fluorescence as a readout for inhibition of IL12b.

[2] = test system: Il12b; experiment: RNA-Seq / ATAC-Seq of lipopolysaccharide-induced genes in treated macrophages; format: cell-based
Text: Our screening experiment identified as compounds that […]. Using ATAC-Seq and RNA-Seq analyses, we confirmed that the screen indeed identified hits that work by affecting chromatin, and confirmed that β adrenergic agonists, (and in particular β2 adrenergic agonists) are indeed exquisitely selective inhibitors of Il12b gene expression.
The inhibition of Il12b by β agonists occurs upon stimulation of macrophages with other inflammatory stimuli, including CpG DNA, double stranded RNA, and imiquimod. We confirmed that the cAMP/PKA pathway, but not the exchange factor directly activated by cAMP (EPAC) pathway, was largely responsible for mediating the Il12b suppression by 0-agonists.
FIG. 7B depicts a fold change box plot in samples treated with UK17 (3-fluoro-N′-[(5-nitro-2-thienyl)methylene]benzohydrazide (CID #6895129)), classifying lipopolysaccharide-induced genes by gene-regulation cluster as previously described in Tong A. et al., A Stringent Systems Approach Uncovers Gene-Specific Mechanisms Regulating Inflammation, Cell 165 165-179 (2016). Box plots indicate the distribution of fold change values for each cluster. Red lines are drawn at 1 and −1, indicating a 2-fold up or down-regulation of genes. Il12b is labeled in red.

| SMILES | selective inhibition of the chromatinized Il12b reporter (eGFP) but not the minimal reporter (DsRed) [1] | inhibition of IL12b, eGFP fluorescence as readout [1] | other results |
| --- | --- | --- | --- |
| C/C(=C\c1cccc2ccccc12)[N+](=O)[O-] [1-(2-nitro-1-propen-1-yl)naphthalene] | selective inhibitors of chromatinized Il12b | – | – |
| CCOc1ccc(/C=C/[N+](=O)[O-])cc1 [1-ethoxy-4-(2-nitrovinyl)benzene] | selective inhibitors of chromatinized Il12b | – | – |
| O=C(/C(=C/c1cccnc1)c1nc2ccccc2[nH]1)c1ccccc1 [2-(1H-benzimidazol-2-yl)-1-phenyl-3-(3-pyridinyl)-2-propen-1-one] | selective inhibitors of chromatinized Il12b | – | – |
| NC(=O)c1ccccc1/N=C/c1ccc([N+](=O)[O-])s1 [2-{[(5-nitro-2-thienyl)methylene]amino}benzamide] | selective inhibitors of chromatinized Il12b | – | – |
| CC[n+]1c2ccccc2nc2ccccc21 [5-ethylphenazin-5-ium ethyl sulfate] | selective inhibitors of chromatinized Il12b | – | – |
| O=c1cc(C(Cl)(Cl)Cl)oc2ccc(Cl)cc12 [6-chloro-2-(trichloromethyl)-4H-chromen-4-one] | selective inhibitors of chromatinized Il12b | – | – |
| COc1cc(OC)cc(C(=O)N(Cc2ccc(F)cc2)Cc2cc3c(C)ccc(C)c3[nH]c2=O)c1 [Compound I-2, N-[(5,8-dimethyl-2-oxo-1H-quinolin-3-yl)methyl]-N-[(4-fluorophenyl)methyl]-3,5-dimethoxybenzamide] | – | Positive activity | – |
| CCOc1ccc2[nH]c(=O)c(CN(Cc3ccco3)C(=O)c3ccc(C(C)(C)C)cc3)cc2c1 [Compound I-3, 4-tert-butyl-N-[(6-ethoxy-2-oxo-1H-quinolin-3-yl)methyl]-N-(furan-2-ylmethyl)benzamide] | – | Positive activity | – |
| Cc1ccc(NC(=O)N(Cc2ccco2)Cc2cc3cc4c(cc3[nH]c2=O)OCCO4)cc1 [Compound I-4, 1-(furan-2-ylmethyl)-3-(4-methylphenyl)-1-[(7-oxo-3,6-dihydro-2H-[1,4]dioxino[2,3-g]quinolin-8-yl)methyl]urea] | – | Positive activity | – |
| CCOc1ccc2[nH]c(=O)c(CN(Cc3ccco3)C(=O)Nc3ccc(OC)cc3)cc2c1 [Compound I-5, 1-[(6-ethoxy-2-oxo-1H-quinolin-3-yl)methyl]-1-(furan-2-ylmethyl)-3-(4-methoxyphenyl)urea] | – | Positive activity | – |
| CCOc1ccc(NC(=S)N(Cc2ccco2)Cc2cc3ccc(C)cc3[nH]c2=O)cc1 [Compound I-6, 3-(4-ethoxyphenyl)-1-(furan-2-ylmethyl)-1-[(7-methyl-2-oxo-1H-quinolin-3-yl)methyl]thiourea] | – | Positive activity | – |
| Cc1ccc(NC(=O)N(Cc2ccco2)Cc2cc3cc4c(cc3[nH]c2=O)OCO4)cc1 [Compound I-7, 1-(furan-2-ylmethyl)-3-(4-methylphenyl)-1-[(6-oxo-5H-[1,3]dioxolo[4,5-g]quinolin-7-yl)methyl]urea] | – | Positive activity | – |
| O=C(NCc1ccccc1)N(Cc1ccco1)Cc1cc2cc3c(cc2[nH]c1=O)OCO3 [Compound I-8, 3-benzyl-1-(furan-2-ylmethyl)-1-[(6-oxo-5H-[1,3]dioxolo[4,5-g]quinolin-7-yl)methyl]urea] | – | Positive activity | – |
| CCc1ccc2[nH]c(=O)c(CN(Cc3ccco3)C(=S)NCc3ccccc3)cc2c1 [Compound I-9, 3-benzyl-1-[(6-ethyl-2-oxo-1H-quinolin-3-yl)methyl]-1-(furan-2-ylmethyl)thiourea] | – | Positive activity | – |
| Cc1ccc(C)c2[nH]c(=O)c(CN(Cc3ccco3)C(=S)NCc3ccco3)cc12 [Compound I-10, 1-[(5,8-dimethyl-2-oxo-1H-quinolin-3-yl)methyl]-1,3-bis(furan-2-ylmethyl)thiourea] | – | Positive activity | – |
| CCOc1ccc2[nH]c(=O)c(CN(Cc3ccco3)C(=O)c3cccs3)cc2c1 [Compound I-11, N-[(6-ethoxy-2-oxo-1H-quinolin-3-yl)methyl]-N-(furan-2-ylmethyl)thiophene-2-carboxamide] | – | Positive activity | – |
| O=C(CCc1ccccc1)N/N=C\c1ccc([N+](=O)[O-])s1 [II-2, N—[(Z)-(5-nitrothiophen-2-yl)methylideneamino]-3-phenylpropanamide] | – | Positive activity | – |
| O=C(N/N=C\c1ccc([N+](=O)[O-])o1)c1ccc(-c2ccccc2)cc1 [II-3, N—[(Z)-(5-nitrofuran-2-yl)methylideneamino]-4-phenylbenzamide] | – | Positive activity | – |
| C/C(=N\NC(=O)c1cccc(Cl)c1)c1ccc([N+](=O)[O-])o1 [II-4, 3-chloro-N-[(E)-1-(5-nitrofuran-2-yl)ethylideneamino]benzamide] | – | Positive activity | – |
| O=C(Cc1ccc(Cl)cc1)N/N=C\c1ccc([N+](=O)[O-])o1 [II-5, 2-(4-chlorophenyl)-N—[(Z)-(5-nitrofuran-2-yl)methylideneamino]acetamide] | – | Positive activity | – |
| O=C(N/N=C\c1ccc([N+](=O)[O-])o1)c1cccc2ccccc12 [II-6, N—[(Z)-(5-nitrofuran-2-yl)methylideneamino]naphthalene-1-carboxamide] | – | Positive activity | – |
| O=c1cccc2n1C[C@H]1C[C@@H]2CN(Cc2ccc3ccc4cccc5ccc2c3c45)C1 [III-2, (1R,9S)-11-(pyren-1-ylmethyl)-7,11-diazatricyclo[7.3.1.0^2,7]trideca-2,4-dien-6-one] | – | Positive activity | – |
| COc1ccc(Br)cc1/C=C/C(=O)c1ccc2c(c1)OCCO2 [IV-2, (E)-3-(5-bromo-2-methoxyphenyl)-1-(2,3-dihydro-1,4-benzodioxin-6-yl)prop-2-en-1-one] | – | Positive activity | – |
| COc1ccc(OC)c(/C=C/C(=O)c2ccc(C)cc2)c1 [IV-3, (E)-3-(2,5-dimethoxyphenyl)-1-(4-methylphenyl)prop-2-en-1-one] | – | Positive activity | – |
| COc1ccc(C(=O)/C=C/c2cccc(Cl)c2)cc1OC [IV-4, (E)-3-(3-chlorophenyl)-1-(3,4-dimethoxyphenyl)prop-2-en-1-one] | – | Positive activity | – |
| CCOc1ccc(C(=O)/C=C/c2cccc(OC)c2OC)cc1 [IV-5, (E)-3-(2,3-dimethoxyphenyl)-1-(4-ethoxyphenyl)prop-2-en-1-one] | – | Positive activity | – |
| CC(=O)Nc1ccc(Br)cc1-c1ccccc1 [N-(5-bromo-2-biphenylyl)acetamide] | selective inhibitors of chromatinized Il12b | – | – |
| Cc1cc2ncn(N=Cc3ccc([N+](=O)[O-])o3)c2cc1C [UK6, 5,6-dimethyl-N-[(5-nitro-2-furyl)methylene]-1H-benzimidazol-1-amine] | selective inhibitors of chromatinized Il12b | – | rank of Il12b among the most strongly inhibited lipopolysaccharide-induced genes ([2]; genes with RPKM>4 and FC>10, ranked by fold change (Max RPKM with/without compound)): ≤ 20 |
| CCCC(=O)Nc1ncnc2c1ncn2[C@@H]1O[C@@H]2COP(=O)(O)O[C@H]2[C@H]1OC(=O)CCC [dibutyryl cyclic AMP, reference compound] | – | – | selective inhibition of Il12b gene expression ([2]; RNA-Seq and ATAC-Seq analyses, macrophages): selectively inhibit IL12b expression |
| CCOC(=O)C(=Cc1ccc2c(c1)C(=O)CC2=O)C(=O)OCC [diethyl [(1,3-dioxo-2,3-dihydro-1H-inden-5-yl)methylene]malonate] | selective inhibitors of chromatinized Il12b | – | – |
